According to US6914045B2, “Glycopeptide antibiotics” (Wyeth Holdings Corporation, priority 2001, dated 2005):
Converted amounts (≈) assume the structure as drawn.

What was measured:
Assay in all cases: in vitro antibacterial evaluation, MIC by broth dilution
Format in all cases: cell-based
[1] = system: Enterococcus sp.; conditions: broth dilution, 18 hours at 35° C.
Outline: (§1)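 Inoculum 5×10^5 CFU/mL; concentrations 64 to 0.06 μg/mL; MIC defined as lowest inhibitory level. Conducted by broth dilution under NCCLS guidelines.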

[2] = system: Staphylococcus sp.; conditions: broth dilution, 18 hours at 35° C.
Outline: as §1

[3] = system: Streptococcus sp.; conditions: broth dilution, 18 hours at 35° C.
Outline: as §1

[4] = system: Escherichia coli; conditions: 18 hours at 35° C.

CC(c1ccccc1)C1NC(=O)CNC(=O)C(CO)NC(=O)C(C(O)C2CNC(=N)N2C2OC(CO)C(O)C(O)C2O)NC(=O)C(C(O)C2CNC(=N)N2)NC(=O)C(Cc2ccc(OC3OC(CO)C(OC4OC(COCc5cccs5)C(O)C(O)C4O)C(O)C3O)cc2)NC1=O (stereo not shown) [Example 244]
MIC Enterococcus avium (GC 4558) [1]: 32 µg/mL (≈ 23 µM)
MIC Enterococcus faecalis (ATCC 29212) [1]: 32 µg/mL (≈ 23 µM)
MIC Enterococcus faecalis (GC 2242) [1]: 32 µg/mL (≈ 23 µM)
MIC Enterococcus faecalis (GC 2691) [1]: 32 µg/mL (≈ 23 µM)
MIC Enterococcus faecalis (GC 3059) [1]: 64 µg/mL (≈ 46 µM)
MIC Enterococcus faecalis (GC 4552) [1]: 32 µg/mL (≈ 23 µM)
MIC Enterococcus faecalis (GC 4553) [1]: 32 µg/mL (≈ 23 µM)
MIC Enterococcus faecalis (GC 4554) [1]: 64 µg/mL (≈ 46 µM)
MIC Enterococcus faecalis (GC 6189) [1]: 32 µg/mL (≈ 23 µM)
MIC Enterococcus faecium (GC 2243) [1]: 32 µg/mL (≈ 23 µM)
MIC Enterococcus faecium (GC 4556) [1]: 32 µg/mL (≈ 23 µM)
MIC Enterococcus faecium (GC 4557) [1]: 4 µg/mL (≈ 2.87 µM)
MIC Enterococcus faecalis (ATCC 29212) ([1]; strain ATCC 29212): 32 µg/mL (≈ 23 µM)
MIC Enterococcus faecium (GC 2243) ([1]; strain GC 2243): 32 µg/mL (≈ 23 µM)
MIC Enterococcus faecalis (GC 4552) ([1]; strain GC 4552): 32 µg/mL (≈ 23 µM)
MIC Enterococcus faecalis (GC 4553) ([1]; strain GC 4553): 32 µg/mL (≈ 23 µM)
MIC Enterococcus faecalis (GC 4554) ([1]; strain GC 4554): 64 µg/mL (≈ 46 µM)
MIC Enterococcus faecium (GC 4556) ([1]; strain GC 4556): 32 µg/mL (≈ 23 µM)
MIC Enterococcus faecium (GC 4557) ([1]; strain GC 4557): 4 µg/mL (≈ 2.87 µM)
MIC Enterococcus avium (GC 4558) ([1]; strain GC 4558): 32 µg/mL (≈ 23 µM)
MIC Enterococcus faecalis (GC 6189) ([1]; strain GC 6189): 32 µg/mL (≈ 23 µM)
MIC Enterococcus faecalis (GC 2242) ([1]; inoculum 5×10^5 CFU/mL, strain GC 2242): 32 µg/mL (≈ 23 µM)
MIC Enterococcus faecalis (GC 2691) ([1]; inoculum 5×10^5 CFU/mL, strain GC 2691): 32 µg/mL (≈ 23 µM)
MIC Enterococcus faecalis (GC 3059) ([1]; inoculum 5×10^5 CFU/mL, strain GC 3059): 64 µg/mL (≈ 46 µM)
MIC Coagulase Negative Staphylococcus (GC 4547) [2]: 4 µg/mL (≈ 2.87 µM)
MIC Coagulase Negative Staphylococcus (GC 4548) [2]: 2 µg/mL (≈ 1.44 µM)
MIC Coagulase Negative Staphylococcus (GC 4549) [2]: 2 µg/mL (≈ 1.44 µM)
MIC Coagulase Negative Staphylococcus (GC 4551) [2]: 4 µg/mL (≈ 2.87 µM)
MIC Coagulase Negative Staphylococcus (GC 6257) [2]: 2 µg/mL (≈ 1.44 µM)
MIC Staphylococcus aureus (ATCC 29213) [2]: 8 µg/mL (≈ 5.75 µM)
MIC Staphylococcus aureus (GC 1131) [2]: 8 µg/mL (≈ 5.75 µM)
MIC Staphylococcus aureus (GC 3051) [2]: 8 µg/mL (≈ 5.75 µM)
MIC Staphylococcus aureus (GC 3053) [2]: 16 µg/mL (≈ 11.5 µM)
MIC Staphylococcus aureus (GC 4541) [2]: 8 µg/mL (≈ 5.75 µM)
MIC Staphylococcus aureus (GC 4542) [2]: 1 µg/mL (≈ 0.719 µM)
MIC Staphylococcus aureus (GC 4544) [2]: 8 µg/mL (≈ 5.75 µM)
MIC Staphylococcus aureus (GC 4545) [2]: 8 µg/mL (≈ 5.75 µM)
MIC Staphylococcus aureus-SMITH (GC 4543) [2]: 4 µg/mL (≈ 2.87 µM)
MIC Staphylococcus haemolyticus (GC 4546) [2]: 4 µg/mL (≈ 2.87 µM)
MIC Staphylococcus aureus (ATCC 29213) ([2]; strain ATCC 29213): 8 µg/mL (≈ 5.75 µM)
MIC Staphylococcus aureus (GC 1131) ([2]; strain GC 1131): 8 µg/mL (≈ 5.75 µM)
MIC Staphylococcus aureus (GC 3051) ([2]; strain GC 3051): 8 µg/mL (≈ 5.75 µM)
MIC Staphylococcus aureus (GC 3053) ([2]; strain GC 3053): 16 µg/mL (≈ 11.5 µM)
MIC Staphylococcus aureus (GC 4541) ([2]; strain GC 4541): 8 µg/mL (≈ 5.75 µM)
MIC Staphylococcus aureus (GC 4542) ([2]; strain GC 4542): 1 µg/mL (≈ 0.719 µM)
MIC Staphylococcus aureus-SMITH (GC 4543) ([2]; strain GC 4543): 4 µg/mL (≈ 2.87 µM)
MIC Staphylococcus aureus (GC 4544) ([2]; strain GC 4544): 8 µg/mL (≈ 5.75 µM)
MIC Staphylococcus aureus (GC 4545) ([2]; strain GC 4545): 8 µg/mL (≈ 5.75 µM)
MIC Staphylococcus haemolyticus (GC 4546) ([2]; strain GC 4546): 4 µg/mL (≈ 2.87 µM)
MIC Coagulase Negative Staphylococcus (GC 4547) ([2]; strain GC 4547): 4 µg/mL (≈ 2.87 µM)
MIC Coagulase Negative Staphylococcus (GC 4548) ([2]; strain GC 4548): 2 µg/mL (≈ 1.44 µM)
MIC Coagulase Negative Staphylococcus (GC 4549) ([2]; strain GC 4549): 2 µg/mL (≈ 1.44 µM)
MIC Coagulase Negative Staphylococcus (GC 4551) ([2]; strain GC 4551): 4 µg/mL (≈ 2.87 µM)
MIC Coagulase Negative Staphylococcus (GC 6257) ([2]; strain GC 6257): 2 µg/mL (≈ 1.44 µM)
MIC Streptococcus agalactiae (GC 4564) [3]: 4 µg/mL (≈ 2.87 µM)
MIC Streptococcus pneumoniae (ATCC 6301) [3]: 1 µg/mL (≈ 0.719 µM)
MIC Streptococcus pneumoniae (GC 1894) [3]: 0.5 µg/mL (≈ 0.359 µM)
MIC Streptococcus pneumoniae (GC 4565) [3]: 1 µg/mL (≈ 0.719 µM)
MIC Streptococcus pyogenes (GC 4563) [3]: 2 µg/mL (≈ 1.44 µM)
MIC Streptococcus pneumoniae (ATCC 6301) ([3]; inoculum 5×10^5 CFU/mL, strain ATCC 6301): 1 µg/mL (≈ 0.719 µM)
MIC Streptococcus pneumoniae (GC 1894) ([3]; inoculum 5×10^5 CFU/mL, strain GC 1894): 0.5 µg/mL (≈ 0.359 µM)
MIC Streptococcus pyogenes (GC 4563) ([3]; inoculum 5×10^5 CFU/mL, strain GC 4563): 2 µg/mL (≈ 1.44 µM)
MIC Streptococcus agalactiae (GC 4564) ([3]; inoculum 5×10^5 CFU/mL, strain GC 4564): 4 µg/mL (≈ 2.87 µM)
MIC Streptococcus pneumoniae (GC 4565) ([3]; inoculum 5×10^5 CFU/mL, strain GC 4565): 1 µg/mL (≈ 0.719 µM)
MIC Escherichia coli (ATCC 25922) [4]: >64 µg/mL
MIC Escherichia coli (GC 4559) [4]: 64 µg/mL (≈ 46 µM)
MIC Escherichia coli (GC 4560) [4]: 2 µg/mL (≈ 1.44 µM)
